Results taken from US7745465B2, “Method of enhancing cellular production of molecular chaperone, hydroxylamine derivatives useful for enhancing the chaperone production and the preparation thereof” (CytRx Corporation, priority 1995, dated 2010).

Columns and labels:
Hsp90 = assay: Western blot of hsp90 in heat shocked H9c2 cells; assay type: cell-based, rat
Procedure: (§1) Experiments set forth in this section were conducted to determine whether N-[2-hydroxy-3-(1-piperidinyl)propoxy]-3-pyridinecarboximidoyl chloride maleate acts to increase the expression of molecular chaperon by a cell. The accumulation of different heat shock proteins subsequent to a period of exposure to heat shock alone, and to heat shock in combination with N-[2-hydroxy-3-(1-piperidinyl)propoxy]-3-pyridinecarboximidoyl chloride maleate administration, was examined by adding 10^−5 M of N-[2-hydroxy-3-(1-piperidinyl)propoxy]-3-pyridinecarboximidoyl chloride maleate before, during, or immediately after hyperthermic treatment of heart myogenic cells (H9c2 cells).
(§2) The embryonic rat heart-derived cell line H9c2 was obtained from European Collection of Animal cell Cultures (ECACC) (88092904). The cells were maintained at 37° C. in Dulbecco's modified Eagle's medium (DMEM) supplemented with 10% fetal calf serum (GIBCO) in JOUAN C02 thermostat (5% CO2).
Heat shock was performed at 43° C. in CO2 thermostat for the given time intervals (20, 40, 60, 90 and 120 min.). Cells were then taken back to 37° C. for 6 hours and proteins were extracted for SDS-PAGE. […]
(§3) Protein concentration was determined from 5:1 samples by the Bradford assay (M. M. Braford, Anal. Biochem., 72: 248-254 (1976)) in three parallel. […]

K562 cells = assay: Sensitivity of K562 cells to lysis mediated by NK cells; assay type: cell-based, human; conditions: heat shock plus treatment
hsp72 = hsp72 content of K562 tumor cells by flow-cytometry; assay type: cell-based, human; conditions: for hsp72 expression compared to heat shock alone: 5×10^−5 M during 42° C. for 2 hours, 16 hrs recovery, maleate
Text: Human K562 cells, a myeloid tumor cell line derived from a patient with chronic myelogenous leukemia in blast phase (ATCC, CCL243) was used (Lozzio, B C and Lozzio, B B Blood 45:321, 1975).

[1] = tested on: Rats with genetic hypertension; assay: Morphological examination of the thoracic aorta of rats with genetic hypertension; assay type: in vivo, rat; conditions: daily oral treatment (20 mg/kg 8 days or 5 mg/kg 20 days)
Procedure: Rats with genetic hypertension were divided into four groups of four. The groups were treated daily, orally, the first group with physiological saline, the second group with N-[2-hydroxy-3-(1-piperidinyl)]-propoxy-3-pyridine-carboximidoyl-chloride maleate (20 mg/kg) for 8 days, the third group with N-[2-hydroxy-3-(1-piperidinyl)-propoxy]-benzimidoyl-chloride monohydrochloride (5 mg/kg) for 20 days and the fourth group with N-[2-hydroxy-3-(1-piperidinyl)-propoxy]-2-thiophenecarboximidoyl-chloride monohydrochloride (5 mg/kg) for 20 days. Animals were sacrificed, aortas were isolated, snap frozen in liquid nitrogen and were stored at −70° C. till they were used.
The examination was performed according to published methods (Br. J. of Pharmacol., 1995; 115, […]). A 1 mm^2 area of the thoracic aorta was excised and fixed in 2.5% glutaral-dehyde at room temperature. Post fixation was performed in 1% osmium-tetroxide for one hour. The tissue was dehydrated in ethanol and was embedded in Durcupan ACM. Pictures were taken by a Hitachi 7100 electronmicroscope and were evaluated qualitatively.

SPRD male rats = assay: Cardiac ischemia (LAD occlusion 5 min, reperfusion 10 min): ventricular tachycardia, fibrillation, survival; assay type: in vivo, rat
Procedure: Experiments were carried out in SPRD male rats. The animals were anaesthetized with Nembutal in a dose of 60 mg/kg/i.p. After opening the chest and pericardium, the LAD coronary artery was occluded for 5 minutes and then the incidence and duration of ventricular tachycardia and fibrillation in the reperfusion period (10 minutes) were investigated. Tissue samples were collected from the left and right ventricles.

Hsp60 = assay: Western blot of hsp60 in heat shocked H9c2 cells; assay type: cell-based, rat
Procedure: as §1, §2
Heat shock was performed at 43° C. in CO2 thermostat for the given time intervals (20, 40, 60, 90 and 120 min.). Cells were then taken back to 37° C. for 6 hours and proteins were extracted for SDS-PAGE. When N-[2-hydroxy-3-(1-piperidinyl)propoxy ]-3-pyridinecarboximidoyl chloride maleate was added before heat shock. 10^−5 M N-[2-hydroxy-3-(1-piperidinyl)propoxy]-3-pyridinecarboximidoyl chloride maleate was administered for 16 hours before the stress. In other set of experiments, N-[2-hydroxy-3-(1-piperidinyl)propoxy]-3-pyridinecarboximidoyl chloride maleate was added in 10^−5 M concentration right after heat stress, during the 6 hours recovery period. The experiments were repeated three times.
For SDS-P AGE, cells were grown in 6 cm Petri dishes. The amount of the cells at the start of the experiment was 8×10^5 and were still suconfluent when proteins were extracted. After the 6 hours recovery cells were washed two times in PBS then scrapped from the surface of the dishes in PBS. […]
as §3

[2] = 0.5-, 0.75-, 1.0 mg/kg i.v. 5 min. before the occlusion

O=C(O)/C=C\C(=O)O.OC(CON=C(Cl)c1cccnc1)CN1CCCCC1 (stereo not shown) [N-[2-hydroxy-3-(1-piperidinyl)-propoxy]3-pyridinecarboximidoyl chloride maleate]
level of Hsp90 increased (Hsp90; added before the heat stress, 20 min. heat treatment): about fivefold
effect on HSP90 level (Hsp90; added following 43° C. 60 min. treatment): as effective (if not more) as if added before high temperature stress
lisability of K562 cells by NK cells (K562 cells): synergistic effect on the lisability of K562 cells
hsp72 expression compared to heat shock alone (hsp72; listed as N-[2-hydroxy-3-(1-piperidinyl)propoxy]-3-piridinecarboximidoyl chloride maleate): enhanced level of hsp72
hsp72 expression compared to heat shock alone (hsp72; listed as N-[2-hydroxy-3-(1-piperidinyl)propoxy]-3-piridinecarboxymidoyl chloride maleate): significant increase of hsp72 expression
hsp72 levels (hsp72; compound alone, no heat shock): did not increase hsp72 levels
regeneration of the cells of aorta [1]: facilitated the regeneration of the cells of aorta
survival of reperfusion after the 5 min. occlusion (SPRD male rats; 100 mg/kg p.o., all control animals (n=6) died): survived the reperfusion
mean duration of ventricular tachycardia (SPRD male rats; [2]): reduced significantly
survival rate (preventing ventricular fibrillation) (SPRD male rats; [2]): improved the survival rate
amount of hsp60 increased (compared to 37° C. control) (Hsp60; 10^−5 M added 16 hours before heat stress, 20 min. heat treatment at 43° C.): about fivefold
effect on the level of hsp60 (Hsp60; added during the recovery phase): also effective though to a significantly lesser extent
effect on the level of hsp60 (Hsp60; treatment at 37° C., no heat shock): no measurable effect
